What was measured:
[1] = DPPH radical scavenging rate (antioxidative effect); assay type: biochemical; conditions: 200 μM DPPH, 30 minutes, absorbance at 520 nm; compared with L-ascorbic acid
Protocol: In order to evaluate the antioxidation ability of the two novel compounds thus isolated, 200 μM DPPH (1,1-diphenyl-2-picrylhydrazyl) dissolved in 50% ethanol was prepared as a reagent. In the preparation procedure of the reagent, DPPH was first dissolved in ethanol, and an equal amount of Milli-Q water was then added to the mixture. Then, the resulting mixture was filtered with a 0.45 μm syringe filter to remove undissolved matters.
A sample solution in a volume of 150 μL and the 200 μM DPPH ethanol solution in a volume of 150 μL were mixed well in a 96-well plate. After the plate was left standing still for 30 minutes, the absorbance at 520 nm was measured using a microplate reader (Thermo Fisher Scientific, Multiscan-LUX). The radical scavenging rate was obtained using the formula (F1).
Note that in the formula, RD (%) represents the radical scavenging rate (%). ODblank520nm represents the absorbance at 520 nm of the reagent (DPPH) to which each of the sample solutions is not added, while ODsample520nm represents the absorbance at 520 nm of the reagent (DPPH) to which each of the sample solutions is added and mixed, followed by being left standing still for 30 minutes.
FIG. 2 is a graph of the result with a photograph of a state of the microplate. […]

MMP-1 = test: Inhibition of MMP-1 protein expression after UV-B irradiation, western blotting; assay type: cell-based, human; conditions: NHDF cells, 50 or 100 μM, precultured 24 hours, UV-B 25 mJ/cm2, 24 hours after irradiation
Protocol: Normal human dermal fibroblasts-Neo (NHDF, hereinafter, simply referred to as “NHDF cells”) were adjusted at 1×10^5 cells/mL and inoculated in a 12-well multi-well plate in a volume of 1 mL each and cultured to a confluent state. Subsequently, test samples (a final concentration of 50 or 100 μM (of each solvent-fractionated matter) (of each isolated substance)) were added to the cells and the cells were precultured for 24 hours. Subsequently, after rinsing with PBS twice, the cells were irradiated with UV-B with a light intensity of 25 mJ/cm^2.
The cells irradiated with ultraviolet rays were subjected to SDS-PAGE after 24 hours, and then western blotting was performed by transferring to PVDF (polyvinylidene difluoride), thereby detecting protein expression of MMP-1.
Referring to FIG. 3(a), in two columns in an upper part of the photograph, an upper column indicates the presence/absence of UV irradiation (“+”: irradiated with UV, “−”: not irradiated) and a lower column indicates samples (no sample indicated by “−”, 4G3HBE, and 4GBE). Further, a left part of the photograph indicates detection targets (MMP-1 and β-Actin) along a vertical direction. β-Actin is measured as a control.

NF-κB = test: Activation (phosphorylation) of signaling molecule after UV-B irradiation, western blotting; assay type: cell-based, human; conditions: NHDF cells, precultured 24 hours, UV-B 25 mJ/cm2
Protocol: (§1) Since activation of p38MAP kinase, SAPK/JNK, and NF-κB involving in an inflammatory response is deeply involved in the induction and production of MMPs after UV-B irradiation, activation (via phosphorylation) of these signaling molecules was studied by the western blotting method.
(§2) More specifically, the NHDF cells were precultured for 24 hours in the same manner as described above, rinsed with PBS twice, irradiated with UV-B with a light intensity of 25 mJ/cm^2, and subjected to western blotting to examine phosphorylation of p38MAP, SAPK/JNK, and NF-κB.
(§3) The data were shown by average±standard error (n=3). The comparison between multiple groups was performed by using the Tukey-Kramer test method (p<0.05).
(§4) Referring to FIG. 4(b), the horizontal axis of the graph indicates conditions of the samples, that is, the presence/absence of UV-B irradiation (“+”: irradiated with UV, “−”: not irradiated), the presence/absence of 4G3HBE (“+”: presence, “−”: absence), and the presence/absence of 4GBE (“+”: presence, “−”: absence). Further, the vertical axis indicates changes in phosphorylation, that is, a relative ratio of phosphorylation activity. Referring to FIG. 4(b), p38MAP, SAPK/JNK, and phosphorylated NF-κB increased by UV-B irradiation. However, the expression of the signaling molecules was suppressed by the presence of 4G3HBE or 4GBE.

SAPK/JNK = test: as above; assay type: cell-based, human; conditions: NHDF cells, precultured 24 hours, UV-B 25 mJ/cm2
Protocol: as §1, §2, §3, §4

p38MAP kinase = test: as above; assay type: cell-based, human; conditions: NHDF cells, precultured 24 hours, UV-B 25 mJ/cm2
Protocol: as §1, §2, §3, §4

NHDF cells = test: Amount of intracellular reactive oxygen species (ROS), CM-H2DCFDA; assay type: cell-based, human; conditions: 50 μM, precultured 24 hours, UV-B 25 mJ/cm2, 1 hour, control 1%, UV-B alone about 1.7%
Excerpt: In the studies of “Antioxidative effect”, it was confirmed that 4G3HBE and 4GBE had approximately half of the antioxidation activity of vitamin C. On the other hand, according to “Inhibition of MMP-1 expression” and “Activation of signaling molecules”, it was thought that attenuation of the oxidative stress signal was induced by removal of ROS, generated by UV-B irradiation, by the antioxidation ability of 4G3HBE and 4GBE. Thus, the amount of the intracellular reactive oxygen species (ROS) was measured using CM-H2DCFDA, an indicator of ROS.
The NHDF cells (1.0×10^5 cells/mL) were cultured to a confluent state. Subsequently, 4G3HBE and 4GBE were each added to the cells at a final concentration of 50 μM, followed by preculturing for 24 hours. CM-H2DCFDA serving as a cell-permeable indicator of reactive oxygen was added to the cells at a final concentration of 10 μM one hour before ultraviolet ray irradiation. Subsequently, the cells were irradiated with UV-B with a light intensity of 25 mJ/cm^2 and further cultured for 1 hour in an incubator. Then, fluorescence was measured with an excitation wavelength of 495 nm and a fluorescent wavelength of 530 nm using a multimode microplate reader, Varioscan LUX. […]

SMILES | antioxidative activity (radical scavenging rate) relative to vitamin C [1] | expression of MMP-1 (protein, detection intensity) (MMP-1) | activation of NF-κB (phosphorylation) (NF-κB) | activation of SAPK/JNK (phosphorylation) (SAPK/JNK) | activation of p38MAP kinase (phosphorylation) (p38MAP kinase) | intracellular ROS level (NHDF cells)
CC(C)(O)C(OC(=O)/C=C/c1ccc(O)c(O)c1)C(=O)OCc1ccc(O[C@@H]2O[C@H](CO)[C@@H](O)[C@H](O)[C@H]2O)c(O)c1 (stereo partly drawn) [4G3HBE, 2-caffeoyl-3-hydroxy-3-methylbutyric 4′-β-D-glucopyranosyloxy-3′-hydroxybenzyl ester] | approximately half that of vitamin C | clearly suppressed the expression of MMP-1 | significantly down-regulated | significantly down-regulated | significantly down-regulated | about 1.4%
CC(C)(O)C(OC(=O)/C=C/c1ccc(O)c(O)c1)C(=O)OCc1ccc(O[C@@H]2O[C@H](CO)[C@@H](O)[C@H](O)[C@H]2O)cc1 (stereo partly drawn) [4GBE, 2-caffeoyl-3-hydroxy-3-methylbutyric 4′-β-D-glucopyranosyloxybenzyl ester] | approximately half that of vitamin C | clearly suppressed the expression of MMP-1 | significantly down-regulated | significantly down-regulated | significantly down-regulated | about 1.4%
